Reference: PubChem BioAssay AID230 (DTP/NCI, 2004)
“And” between values parts separate entries of the source, which are not always exact repeats. Equal entries are not always repeated. Inconclusive results and toxic doses are left out.

Test system: C3H/He mice, Gardner lymphosarcoma 6C3HED ip, survival T/C
Experiment: NCI In Vivo Anticancer Drug Screen. Data for tumor model Lymphosarcoma Gardner 6C3HED (intraperitoneal) in C3H/He mice
Conditions: higher = longer survival
Protocol: The antitumor activity of compounds was measured in mice bearing transplantable tumors. Survival or tumor size were measured and the results are expressed as the measurement made in the treated group (T) divided by the measurement made in the vehicle treated control group (C). The tumor model used in this assay is Lymphosarcoma Gardner 6C3HED (intraperitoneal) in C3H/He mice

[1] = endpoint: survival time, mean or median, dose: 0.25 mg/kg/injection, schedule: Q01DX010 (ip), vehicle: saline
[2] = endpoint: survival time, mean or median, dose: 2.0 mg/kg/injection, schedule: Q01DX010 (ip), vehicle: saline
[3] = endpoint: survival time, mean or median, dose: 12.5 mg/kg/injection, schedule: Q01DX010 (ip), vehicle: saline
[4] = endpoint: survival time, mean or median, dose: 25.0 mg/kg/injection, schedule: Q01DX010 (ip), vehicle: saline
[5] = endpoint: survival time, mean or median, dose: 50.0 mg/kg/injection, schedule: Q01DX010 (ip), vehicle: saline
[6] = endpoint: survival time, mean or median, dose: 100.0 mg/kg/injection, schedule: Q01DX010 (ip), vehicle: saline
[7] = endpoint: survival time, mean or median, dose: 4.0 mg/kg/injection, schedule: Q01DX010 (ip), vehicle: saline

COc1cccc2c1C(=O)c1c(O)c3c(c(O)c1C2=O)C[C@@](O)(C(C)=O)C[C@@H]3OC1CC(N)C(O)C(C)O1 (stereo partly drawn)
T/C (endpoint: survival time, mean or median, dose: 0.13 mg/kg/injection, schedule: Q01DX010 (ip), vehicle: saline): 92 % of control | T/C [1]: 111 % of control | T/C (endpoint: survival time, mean or median, dose: 0.5 mg/kg/injection, schedule: Q01DX010 (ip), vehicle: saline): 119 % of control | T/C (endpoint: survival time, mean or median, dose: 1.0 mg/kg/injection, schedule: Q01DX010 (ip), vehicle: saline): 300 % of control | T/C [2]: 173 % of control

[N-]=[N+]=CC(=O)CCC(N)C(=O)O (stereo not drawn)
T/C (endpoint: survival time, mean or median, dose: 0.03 mg/kg/injection, schedule: Q01DX010 (ip), vehicle: saline): 100 % of control and 105 % of control | T/C (endpoint: survival time, mean or median, dose: 0.05 mg/kg/injection, schedule: Q01DX010 (ip), vehicle: saline): 100 % of control and 118 % of control | T/C (endpoint: survival time, mean or median, dose: 0.1 mg/kg/injection, schedule: Q01DX010 (ip), vehicle: saline): 118 % of control and 120 % of control

NC(=O)CC(N)C(=O)O (stereo not drawn)
T/C (endpoint: median survival time, dose: 100.0 mg/kg/injection, schedule: Q01DX005 (ip), vehicle: water): 92 % of control | T/C (endpoint: median survival time, dose: 200.0 mg/kg/injection, schedule: Q01DX005 (ip), vehicle: water): 100 % of control | T/C (endpoint: median survival time, dose: 400.0 mg/kg/injection, schedule: Q01DX005 (ip), vehicle: water): 92 % of control | T/C (endpoint: median survival time, dose: 800.0 mg/kg/injection, schedule: Q01DX005 (ip), vehicle: water): 92 % of control

O=c1[nH]cnc2c1ncn2C1OC(CO)C(O)C1O (stereo not drawn)
T/C (endpoint: median survival time, dose: 12.5 mg/kg/injection, schedule: Q01DX003 (ip), vehicle: saline): 90 % of control | T/C (endpoint: median survival time, dose: 12.5 mg/kg/injection, schedule: Q12HX006 (ip), vehicle: saline): 101 % of control | T/C (endpoint: median survival time, dose: 25.0 mg/kg/injection, schedule: Q01DX003 (ip), vehicle: saline): 95 % of control | T/C (endpoint: median survival time, dose: 25.0 mg/kg/injection, schedule: Q12HX006 (ip), vehicle: saline): 104 % of control | T/C (endpoint: median survival time, dose: 50.0 mg/kg/injection, schedule: Q01DX003 (ip), vehicle: saline): 100 % of control | T/C (endpoint: median survival time, dose: 50.0 mg/kg/injection, schedule: Q12HX006 (ip), vehicle: saline): 106 % of control

COc1cc(-c2ccc(Nc3ccccc3C(=O)O)c(OC)c2)ccc1Nc1ccccc1C(=O)O
T/C [3]: 117 % of control | T/C [4]: 107 % of control and 117 % of control | T/C [5]: 117 % of control and 118 % of control | T/C [6]: 96 % of control

OC(CBr)C(O)C(O)C(O)CBr (stereo not drawn)
T/C [4]: 88 % of control and 96 % of control | T/C [5]: 88 % of control and 110 % of control | T/C [6]: 100 % of control and 110 % of control | T/C (endpoint: survival time, mean or median, dose: 200.0 mg/kg/injection, schedule: Q01DX010 (ip), vehicle: saline): 88 % of control and 110 % of control

Nc1ncnc2c1ccn2C1OC(CO)C(O)C1O (stereo not drawn)
T/C [1]: 90 % of control

COC1C(OC(=O)/C=C/C=C/C=C/C=C/C(=O)O)CCC2(CO2)C1C1(C)OC1CC=C(C)C (stereo not drawn)
T/C [3]: 102 % of control | T/C [4]: 110 % of control | T/C [5]: 110 % of control | T/C [6]: 100 % of control

C=CC(CN1CC1)OC(C)=O (stereo not drawn)
T/C [2]: 107 % of control | T/C [7]: 123 % of control

Cn1cnc([N+](=O)[O-])c1Sc1ncnc2nc[nH]c12
T/C (endpoint: survival time, mean or median, dose: 10.0 mg/kg/injection, schedule: Q01DX010 (ip), vehicle: saline): 86 % of control | T/C (endpoint: survival time, mean or median, dose: 20.0 mg/kg/injection, schedule: Q01DX010 (ip), vehicle: saline): 93 % of control | T/C (endpoint: survival time, mean or median, dose: 40.0 mg/kg/injection, schedule: Q01DX010 (ip), vehicle: saline): 86 % of control | T/C (endpoint: survival time, mean or median, dose: 80.0 mg/kg/injection, schedule: Q01DX010 (ip), vehicle: saline): 86 % of control

CCN(CCNc1ccc(C)c2sc3cc(Cl)ccc3c(=O)c12)CC(C)O (stereo not drawn)
T/C (endpoint: survival time, mean or median, dose: 7.8 mg/kg/injection, schedule: Q01DX010 (ip), vehicle: saline): 110 % of control | T/C (endpoint: survival time, mean or median, dose: 15.6 mg/kg/injection, schedule: Q01DX010 (ip), vehicle: saline): 100 % of control | T/C (endpoint: survival time, mean or median, dose: 31.3 mg/kg/injection, schedule: Q01DX010 (ip), vehicle: saline): 100 % of control | T/C (endpoint: survival time, mean or median, dose: 62.5 mg/kg/injection, schedule: Q01DX010 (ip), vehicle: saline): 88 % of control and 96 % of control

CC(CCC(C)OS(C)(=O)=O)OS(C)(=O)=O (stereo not drawn)
T/C [7]: 86 % of control | T/C (endpoint: survival time, mean or median, dose: 8.0 mg/kg/injection, schedule: Q01DX010 (ip), vehicle: saline): 100 % of control

NCC(=O)O
T/C (endpoint: median survival time, dose: 187.5 mg/kg/injection, schedule: Q04HX020 (ip), vehicle: saline): 88 % of control | T/C (endpoint: median survival time, dose: 187.5 mg/kg/injection, schedule: Q06HX020 (ip), vehicle: saline): 89 % of control | T/C (endpoint: median survival time, dose: 375.0 mg/kg/injection, schedule: Q04HX020 (ip), vehicle: saline): 88 % of control | T/C (endpoint: median survival time, dose: 375.0 mg/kg/injection, schedule: Q06HX020 (ip), vehicle: saline): 89 % of control | T/C (endpoint: median survival time, dose: 750.0 mg/kg/injection, schedule: Q04HX020 (ip), vehicle: saline): 92 % of control | T/C (endpoint: median survival time, dose: 750.0 mg/kg/injection, schedule: Q06HX020 (ip), vehicle: saline): 93 % of control | T/C (endpoint: median survival time, dose: 1500.0 mg/kg/injection, schedule: Q06HX020 (ip), vehicle: saline): 69 % of control

CS(=O)(=O)OCCCCOS(C)(=O)=O
T/C (endpoint: survival time, mean or median, dose: 1.56 mg/kg/injection, schedule: Q01DX010 (ip), vehicle: saline): 95 % of control | T/C (endpoint: survival time, mean or median, dose: 3.13 mg/kg/injection, schedule: Q01DX010 (ip), vehicle: saline): 90 % of control | T/C (endpoint: survival time, mean or median, dose: 6.25 mg/kg/injection, schedule: Q01DX010 (ip), vehicle: saline): 95 % of control | T/C [3]: 104 % of control

CN(C)CC(=O)c1ccc(O)c(O)c1
T/C (endpoint: survival time, mean or median, dose: 300.0 mg/kg/injection, schedule: Q01DX010 (ip), vehicle: saline): 180 % of control | T/C (endpoint: survival time, mean or median, dose: 675.0 mg/kg/injection, schedule: Q01DX010 (ip), vehicle: saline): 106 % of control

N#Cc1cn(C2OC(CO)C(O)C2O)c2ncnc(N)c12 (stereo not drawn)
T/C (endpoint: survival time, mean or median, dose: 31.0 micrograms/kg/injection, schedule: Q01DX010 (ip), vehicle: saline): 96 % of control | T/C (endpoint: survival time, mean or median, dose: 125.0 micrograms/kg/injection, schedule: Q01DX010 (ip), vehicle: saline): 96 % of control
